Data as given in PubChem BioAssay AID1963845 (Molecular Pharmacology Branch, DTP, NCI, 2024).

Tested on: 429239-143-T-J1-PDC complex spheroid viability
Assay: Anticancer human tumor 429239-143-T-J1-PDC patient-derived small cell lung carcinoma cell line growth inhibition [POLQ]
Settings: for IC50: curve of first compound; for viability, T/C: stronger effect = lower value
Summary of the method: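 Patient-derived tumour cells were co-cultured with HUVEC and mesenchymal stem cells as multicellular spheroids at 37 °C. They were treated with POLQ inhibitors (novobiocin, ART-558, RP6685) alone or combined with other agents. Top concentrations were at or near clinical Cmax (otherwise 10 microM; SN-38 at 1 microM), decreasing in half-log steps.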

[1] = second compound 0.0316 µM, first compound 0.0316 µM
[2] = second compound 0.0316 µM, first compound 0.1 µM
[3] = second compound 0.0316 µM, first compound 0.316 µM
[4] = second compound 0.0316 µM, first compound 1 µM
[5] = second compound 0.0316 µM, first compound 3.16 µM
[6] = second compound 0.0316 µM, first compound 10 µM
[7] = second compound 0.1 µM, first compound 0.0316 µM
[8] = second compound 0.1 µM, first compound 0.1 µM
[9] = second compound 0.1 µM, first compound 0.316 µM
[10] = second compound 0.1 µM, first compound 1 µM
[11] = second compound 0.1 µM, first compound 3.16 µM
[12] = second compound 0.1 µM, first compound 10 µM
[13] = second compound 0.316 µM, first compound 0.0316 µM
[14] = second compound 0.316 µM, first compound 0.1 µM
[15] = second compound 0.316 µM, first compound 0.316 µM
[16] = second compound 0.316 µM, first compound 1 µM
[17] = second compound 0.316 µM, first compound 3.16 µM
[18] = second compound 0.316 µM, first compound 10 µM
[19] = second compound 1 µM, first compound 0.0316 µM
[20] = second compound 1 µM, first compound 0.1 µM
[21] = second compound 1 µM, first compound 0.316 µM
[22] = second compound 1 µM, first compound 1 µM
[23] = second compound 1 µM, first compound 3.16 µM
[24] = second compound 1 µM, first compound 10 µM
[25] = second compound 3.16 µM, first compound 0.0316 µM
[26] = second compound 3.16 µM, first compound 0.1 µM
[27] = second compound 3.16 µM, first compound 0.316 µM
[28] = second compound 3.16 µM, first compound 1 µM
[29] = second compound 3.16 µM, first compound 3.16 µM
[30] = second compound 3.16 µM, first compound 10 µM
[31] = second compound 10 µM, first compound 0.0316 µM
[32] = second compound 10 µM, first compound 0.1 µM
[33] = second compound 10 µM, first compound 0.316 µM
[34] = second compound 10 µM, first compound 1 µM
[35] = second compound 10 µM, first compound 3.16 µM
[36] = second compound 10 µM, first compound 10 µM
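Also: luminescence signal used as surrogate measure of viable cells; spheroids exposed to compounds for seven days before readout.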
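For viability, T/C in this document: 100% = DMSO vehicle control viability as luminescence relative to vehicle.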

SMILES: CC(=O)O[C@H]1C(=O)[C@@]2(C)[C@H]([C@H](OC(=O)c3ccccc3)[C@]3(O)C[C@H](OC(=O)[C@H](O)[C@@H](NC(=O)c4ccccc4)c4ccccc4)C(C)=C1C3(C)C)[C@]1(OC(C)=O)CO[C@@H]1C[C@@H]2O + COC1C(OC(N)=O)C(O)C(Oc2ccc3c(O)c(NC(=O)c4ccc(O)c(CC=C(C)C)c4)c(=O)oc3c2C)OC1(C)C
- IC50 (second compound 0.0316 µM): < 0.00949 µM
- IC50 (second compound 0.1 µM): < 0.00949 µM
- IC50 (second compound 0.316 µM): < 0.00949 µM
- IC50 (second compound 1 µM): < 0.00949 µM
- IC50 (second compound 3.16 µM): < 0.00949 µM
- IC50 (second compound 10 µM): < 0.00949 µM
- viability, T/C (second compound 0.0316 µM, first compound 0.00949 µM): 12.5%
- viability, T/C (second compound 0.0316 µM, first compound 0.03 µM): 12.8%
- viability, T/C (second compound 0.0316 µM, first compound 0.0949 µM): 10.9%
- viability, T/C (second compound 0.0316 µM, first compound 0.3 µM): 13.6%
- viability, T/C (second compound 0.0316 µM, first compound 0.949 µM): 11.8%
- viability, T/C (second compound 0.0316 µM, first compound 3 µM): 13.3%
- viability, T/C (second compound 0.1 µM, first compound 0.00949 µM): 14.8%
- viability, T/C (second compound 0.1 µM, first compound 0.03 µM): 13.2%
- viability, T/C (second compound 0.1 µM, first compound 0.0949 µM): 13.4%
- viability, T/C (second compound 0.1 µM, first compound 0.3 µM): 11.5%
- viability, T/C (second compound 0.1 µM, first compound 0.949 µM): 12.4%
- viability, T/C (second compound 0.1 µM, first compound 3 µM): 14.3%
- viability, T/C (second compound 0.316 µM, first compound 0.00949 µM): 13.8%
- viability, T/C (second compound 0.316 µM, first compound 0.03 µM): 11.2%
- viability, T/C (second compound 0.316 µM, first compound 0.0949 µM): 11.2%
- viability, T/C (second compound 0.316 µM, first compound 0.3 µM): 11.3%
- viability, T/C (second compound 0.316 µM, first compound 0.949 µM): 12.4%
- viability, T/C (second compound 0.316 µM, first compound 3 µM): 12.2%
- viability, T/C (second compound 1 µM, first compound 0.00949 µM): 12.5%
- viability, T/C (second compound 1 µM, first compound 0.03 µM): 12.4%
- viability, T/C (second compound 1 µM, first compound 0.0949 µM): 12.6%
- viability, T/C (second compound 1 µM, first compound 0.3 µM): 11.6%
- viability, T/C (second compound 1 µM, first compound 0.949 µM): 14.2%
- viability, T/C (second compound 1 µM, first compound 3 µM): 13.9%
- viability, T/C (second compound 3.16 µM, first compound 0.00949 µM): 15.9%
- viability, T/C (second compound 3.16 µM, first compound 0.03 µM): 12.6%
- viability, T/C (second compound 3.16 µM, first compound 0.0949 µM): 12%
- viability, T/C (second compound 3.16 µM, first compound 0.3 µM): 11.3%
- viability, T/C (second compound 3.16 µM, first compound 0.949 µM): 15.8%
- viability, T/C (second compound 3.16 µM, first compound 3 µM): 13.8%
- viability, T/C (second compound 10 µM, first compound 0.00949 µM): 14.8%
- viability, T/C (second compound 10 µM, first compound 0.03 µM): 12.8%
- viability, T/C (second compound 10 µM, first compound 0.0949 µM): 12.1%
- viability, T/C (second compound 10 µM, first compound 0.3 µM): 12.8%
- viability, T/C (second compound 10 µM, first compound 0.949 µM): 12.6%
- viability, T/C (second compound 10 µM, first compound 3 µM): 13.3%

SMILES: COc1cc(C2c3cc4c(cc3C(OC3OC5COC(C)OC5C(O)C3O)C3COC(=O)C23)OCO4)cc(OC)c1O (stereo unspecified) + COC1C(OC(N)=O)C(O)C(Oc2ccc3c(O)c(NC(=O)c4ccc(O)c(CC=C(C)C)c4)c(=O)oc3c2C)OC1(C)C
- IC50 (second compound 0.0316 µM): 0.302 µM
- IC50 (second compound 0.1 µM): 0.249 µM
- IC50 (second compound 0.316 µM): 0.417 µM
- IC50 (second compound 1 µM): 0.325 µM
- IC50 (second compound 3.16 µM): 0.349 µM
- IC50 (second compound 10 µM): 0.274 µM
- viability, T/C [1]: 101%
- viability, T/C [2]: 81.2%
- viability, T/C [3]: 53%
- viability, T/C [4]: 15.8%
- viability, T/C [5]: 18.2%
- viability, T/C [6]: 16.6%
- viability, T/C [7]: 106%
- viability, T/C [8]: 72%
- viability, T/C [9]: 47.9%
- viability, T/C [10]: 22%
- viability, T/C [11]: 18.2%
- viability, T/C [12]: 18.1%
- viability, T/C [13]: 88.1%
- viability, T/C [14]: 85.3%
- viability, T/C [15]: 59.4%
- viability, T/C [16]: 20.4%
- viability, T/C [17]: 16.6%
- viability, T/C [18]: 16.1%
- viability, T/C [19]: 90.8%
- viability, T/C [20]: 75.5%
- viability, T/C [21]: 54%
- viability, T/C [22]: 18.6%
- viability, T/C [23]: 14%
- viability, T/C [24]: 17%
- viability, T/C [25]: 88.4%
- viability, T/C [26]: 88.9%
- viability, T/C [27]: 52.4%
- viability, T/C [28]: 20.3%
- viability, T/C [29]: 17%
- viability, T/C [30]: 13.7%
- viability, T/C [31]: 97.4%
- viability, T/C [32]: 79.1%
- viability, T/C [33]: 47.7%
- viability, T/C [34]: 18.9%
- viability, T/C [35]: 23%
- viability, T/C [36]: 14.2%

SMILES: COc1cccc2c1C(=O)c1c(O)c3c(c(O)c1C2=O)CC(O)(C(=O)CO)CC3OC1CC(N)C(O)C(C)O1 (stereo unspecified) + COC1C(OC(N)=O)C(O)C(Oc2ccc3c(O)c(NC(=O)c4ccc(O)c(CC=C(C)C)c4)c(=O)oc3c2C)OC1(C)C
- IC50 (second compound 0.0316 µM): 0.0411 µM
- IC50 (second compound 0.1 µM): 0.0364 µM
- IC50 (second compound 0.316 µM): 0.0482 µM
- IC50 (second compound 1 µM): 0.0376 µM
- IC50 (second compound 3.16 µM): 0.0346 µM
- IC50 (second compound 10 µM): 0.034 µM
- viability, T/C [1]: 60.4%
- viability, T/C [2]: 13.3%
- viability, T/C [3]: 14.5%
- viability, T/C [4]: 0.23%
- viability, T/C [5]: 0.15%
- viability, T/C [6]: 0.13%
- viability, T/C [7]: 55.3%
- viability, T/C [8]: 15.8%
- viability, T/C [9]: 12.3%
- viability, T/C [10]: 0.13%
- viability, T/C [11]: 0.08%
- viability, T/C [12]: 0.1%
- viability, T/C [13]: 68.8%
- viability, T/C [14]: 14.4%
- viability, T/C [15]: 14.2%
- viability, T/C [16]: 0.13%
- viability, T/C [17]: 0.12%
- viability, T/C [18]: 0.12%
- viability, T/C [19]: 56.3%
- viability, T/C [20]: 16.2%
- viability, T/C [21]: 12.7%
- viability, T/C [22]: 0.13%
- viability, T/C [23]: 0.16%
- viability, T/C [24]: 0.48%
- viability, T/C [25]: 53.5%
- viability, T/C [26]: 15.6%
- viability, T/C [27]: 11.9%
- viability, T/C [28]: 0.14%
- viability, T/C [29]: 0.18%
- viability, T/C [30]: 0.3%
- viability, T/C [31]: 52.8%
- viability, T/C [32]: 14%
- viability, T/C [33]: 14.8%
- viability, T/C [34]: 0.24%
- viability, T/C [35]: 0.29%
- viability, T/C [36]: 0.22%
